Laboratory results taken from patent US20250230151A1, “COMPOUNDS FOR CANCERS DRIVEN BY BRAF MUTATION” (THE BOARD OF TRUSTEES OF THE UNIVERSITY OF ILLINOIS, priority 2021, published 2025).

Tests used:
P-gp = biological target: T1, P-gp (Homo sapiens, UniProt P08183); assay: MDR1-MDCK P-gp transwell bidirectional transport assay; assay type: in vitro ADME; details: 10 μM, 90 min; for efflux ratio at 90 min, 10 µM / Papp A→B at 90 min, 10 µM / Papp B→A at 90 min, 10 µM: dog, MDCK-MDR1, MDR1-MDCK; for efflux ratio at 90 min, 10 µM: read-out: ER (efflux ratio) (converted)
T1 construct: host or cells: MDCK (MDR1-MDCK)
Experimental: A novel compound collection composed of complex and diverse compounds derived from natural products, termed “Complexity-to-Diversity Collection” was employed. […] The CtD compounds were evaluated by the efflux pump and their permeability using the P-gp transwell assay using adapted and optimized known protocols. Compound transport across epithelial cells overexpressing P-gp from basolateral-to-apical and apical-to-basolateral directions were quantified to calculate permeability and efflux ratio.
P-gp transwell bidirectional transport assays. Unless noted otherwise, the transport assay was performed in triplicate in batches of 16 or 24 test compounds, with each batch containing quinidine as a substrate control and propranolol as a non-substrate control. MDR1-MDCK cells were plated at a density of 300,000 cells/cm^2 onto 96-well Falcon™ Multiwell Insert System with 1 µm pore polycarbonate filters with angled-bottom receiver plates (Coming) and were fed with the cell growth medium on day 2.
The donor solution was prepared by adding 1 mM DMSO stocks of compounds to make the final concentration […], and the receiver solution was prepared with equivalent volume of DMSO to make 1% DMSO in final assay chamber volumes.
After 80-96 hours since seeding, the growth media on both sides was aspirated. To the transwell plate (apical side), 50 μL of receiver and donor solutions prepared on a 96-well plate were added, and it was placed on top of a separate angled-bottom 96-well plate (basolateral side) containing 260 μL of receiver and donor solutions.
Following 90 minutes of incubation at 37° C. with shaking at 90 rpm, 20 μL aliquot of samples were taken from both the donor and receiver chambers, and the apical and basolateral sides. Aliquots of 4 test compounds were pooled for each category: apical-donor, apical-receiver, basolateral-donor, basolateral-receiver. To measure CO and mass balance, initial donor samples from both apical and basolateral side were set aside from the assay plate. Acetonitrile twice the volume of pooled samples was added and mixed thoroughly, and precipitated proteins were removed by centrifugation at 20,000 r.c.f for 10 minutes.
To ascertain the MDCK monolayer integrity, the solution on apical side contained 100 µM Lucifer Yellow (Millipore-Sigma). After 90 minutes of compound transport, Lucifer Yellow concentration in the basal well was measured using SpectraMax M3 (Molecular Devices) set to an excitation wavelength of 430 nm and an emission wavelength of 540 nm.
Samples were analyzed with the 5500 QTRAP LC/MS/MS system (AB Sciex) with a 1200 series HPLC system (Agilent Technologies) including a degasser, an autosampler, and a binary pump. The liquid chromatography separation was performed on an Agilent SB-Aq column (4.6×50 mm, 5 μm) (Agilent Technologies) with mobile phase A (0.1% formic acid in water) and mobile phase B (0.1% formic acid in acetonitrile). The flow rate was 0.3 ml min^−1. The linear gradient was optimized for each compound. The autosampler was set at 5° C. The injection volume was 15 μL. Mass spectra were acquired with both positive electrospray ionization at the ion spray voltage of 5,500 V and negative electrospray ionization at the ion spray voltage of −4,500 V. The source temperature was 450° C. The curtain gas, ion source gas 1, and ion source gas 2 were 33, 50 and 65, respectively. Multiple reaction monitoring was used to quantify metabolites.
Efflux data calculations.

A375 cells = assay: 72-hour cell viability assay (Alamar Blue), A375; assay type: cell-based, human; details: for IC50: 72-hour incubation, Alamar Blue, V600E BRAF; for Emax: A-375, A375, 72-hour incubation
Experimental: Cell Culture and reagents. All cell lines were grown in a 37° C., 5% CO2, humidified environment, in media containing 1% penicillin/streptomycin. Cell culture conditions are as follows: MDCK cells transfected with MDR1 (or ABCB1) were obtained from the Netherlands Cancer Institute (Amsterdam, The Netherlands) and maintained in DMEM with 10% fetal bovine serum (FBS, Gemini). Traditional cell lines A375, CHL-1, B16F10, and U118MG were grown in DMEM with 10% FBS, SK-MEL-28, U87 and T98G in EMEM with 10% FBS, AM-38 in EMEM with 20% HI-FBS (Gibco), HT29 in McCoy's 5A with 10% FBS, HCT116 in RPMI with 10% FBS. Compounds were dissolved in DMSO (1% final concentration, Sigma-Aldrich) for cell culture studies.
Cell viability assays. Cells were harvested, seeded in a 96-well plate and allowed to adhere overnight. Compound was added to each well in DMSO (1% final concentration). Cells were incubated for 72 hours before viability was assessed by the Alamar Blue Assay. Raptinal ([…]) was used as a dead control.

T1 sequence (P08183 whole entry): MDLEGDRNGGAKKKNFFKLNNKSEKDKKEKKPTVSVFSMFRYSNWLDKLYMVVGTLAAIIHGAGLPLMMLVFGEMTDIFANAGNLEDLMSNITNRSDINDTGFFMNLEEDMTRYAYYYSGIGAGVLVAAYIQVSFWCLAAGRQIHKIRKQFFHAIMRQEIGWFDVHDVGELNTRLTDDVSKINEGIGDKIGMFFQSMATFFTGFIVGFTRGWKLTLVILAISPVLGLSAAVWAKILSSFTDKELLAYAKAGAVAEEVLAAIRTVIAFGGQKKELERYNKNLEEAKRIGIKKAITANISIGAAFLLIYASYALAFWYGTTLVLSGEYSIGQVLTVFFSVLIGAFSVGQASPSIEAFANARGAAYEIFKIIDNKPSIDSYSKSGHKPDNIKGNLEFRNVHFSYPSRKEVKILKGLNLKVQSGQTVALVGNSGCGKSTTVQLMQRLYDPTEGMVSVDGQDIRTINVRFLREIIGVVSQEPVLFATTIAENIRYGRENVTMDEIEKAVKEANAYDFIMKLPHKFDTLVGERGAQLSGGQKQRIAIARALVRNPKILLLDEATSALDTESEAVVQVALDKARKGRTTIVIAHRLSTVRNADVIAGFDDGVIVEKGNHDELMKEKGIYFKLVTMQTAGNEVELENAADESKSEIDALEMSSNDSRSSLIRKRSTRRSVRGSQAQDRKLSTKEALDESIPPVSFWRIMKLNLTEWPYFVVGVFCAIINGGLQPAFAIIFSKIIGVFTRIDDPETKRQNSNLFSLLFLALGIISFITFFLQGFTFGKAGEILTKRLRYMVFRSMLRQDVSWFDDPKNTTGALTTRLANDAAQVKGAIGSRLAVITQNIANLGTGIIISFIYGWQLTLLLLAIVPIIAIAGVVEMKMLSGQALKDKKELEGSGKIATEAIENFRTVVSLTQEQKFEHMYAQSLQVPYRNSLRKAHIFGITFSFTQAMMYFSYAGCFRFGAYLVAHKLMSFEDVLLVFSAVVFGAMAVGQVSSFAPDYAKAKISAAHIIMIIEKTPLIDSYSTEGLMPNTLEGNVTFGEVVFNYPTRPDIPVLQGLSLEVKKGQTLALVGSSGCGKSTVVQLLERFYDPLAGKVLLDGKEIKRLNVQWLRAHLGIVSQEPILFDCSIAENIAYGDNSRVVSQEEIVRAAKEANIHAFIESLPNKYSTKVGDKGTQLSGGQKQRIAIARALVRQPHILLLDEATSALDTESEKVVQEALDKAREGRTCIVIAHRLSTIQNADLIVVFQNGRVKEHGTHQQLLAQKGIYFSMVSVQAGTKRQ

| Compound | efflux ratio at 90 min, 10 µM (P-gp) | Papp A→B at 90 min, 10 µM (P-gp) | Papp B→A at 90 min, 10 µM (P-gp) | IC50 (A375 cells; Homo sapiens, A-375, 72 h) | further results |
| --- | --- | --- | --- | --- | --- |
| C=C[C@H]1C[N@@]2CC[C@H]1C[C@@H]2[C@@H](O)c1ccnc2ccc(OC)cc12 [Quinidine, reference compound] | 8.09 |  |  |  |  |
| CC(C)NCC(O)COc1cccc2ccccc12 (stereo not shown) [Propranolol, reference compound] | 1.18 |  |  |  |  |
| CC(C)(C)c1nc(-c2c(F)ccc(NS(=O)(=O)c3cc(C(F)(F)F)ccc3C(F)(F)F)c2F)c(-c2ccnc(NCCCCC(=O)O)n2)s1 [6-150, 5-((4-(4-(3-((2,5-bis(trifluoromethyl)phenyl)sulfonamido)-2,6-difluorophenyl)-2-(tert-butyl)thiazol-5-yl)pyrimidin-2-yl)amino)pentanoic acid] | 0.6 | 5.18 nm/s | 3.98 ± 1.49 nm/s | > 50 µM |  |
| CC(C)(C)c1nc(-c2cccc(NS(=O)(=O)c3ccc(F)cc3C(F)(F)F)c2F)c(-c2ccnc(N)n2)s1 [6-166, N-(3-(5-(2-aminopyrimidin-4-yl)-2-(tert-butyl)thiazol-4-yl)-2-fluorophenyl)-4-fluoro-2-(trifluoromethyl)benzenesulfonamide] |  |  |  | > 3 µM |  |
| CC(C)(C)c1nc(-c2c(F)ccc(NS(=O)(=O)c3ccc(F)cc3C(F)(F)F)c2F)c(-c2ccnc(N)n2)s1 [6-167, N-(3-(5-(2-aminopyrimidin-4-yl)-2-(tert-butyl)thiazol-4-yl)-2,4-difluorophenyl)-4-fluoro-2-(trifluoromethyl)benzenesulfonamide] |  |  |  | > 3 µM |  |
| CC(C)(C)c1nc(-c2c(F)ccc(NS(=O)(=O)c3cc(C(F)(F)F)ccc3C(F)(F)F)c2F)c(-c2ccnc(N)n2)s1 [6-145, N-(3-(5-(2-aminopyrimidin-4-yl)-2-(tert-butyl)thiazol-4-yl)-2,4-difluorophenyl)-2,5-bis(trifluoromethyl)benzenesulfonamide] | 6.05 ± 0.5 | 9.4 ± 0.5 nm/s | 56.6 ± 1.9 nm/s | > 3 µM |  |
| CC(C)(C)c1nc(-c2cccc(NS(=O)(=O)c3cc(C(F)(F)F)ccc3C(F)(F)F)c2F)c(-c2ccnc(N)n2)s1 [6-163, N-(3-(5-(2-aminopyrimidin-4-yl)-2-(tert-butyl)thiazol-4-yl)-2-fluorophenyl)-2,5-bis(trifluoromethyl)benzenesulfonamide] |  |  |  | > 3 µM |  |
| CC(C)(C)c1nc(-c2cccc(NS(=O)(=O)c3ccc(F)cc3C(F)(F)F)c2F)c(-c2ccnc(NCCCCC(=O)O)n2)s1 [6-181, 5-((4-(2-(tert-butyl)-4-(2-fluoro-3-((4-fluoro-2-(trifluoromethyl)phenyl)sulfonamido)phenyl)thiazol-yl)pyrimidin-2-yl)amino)pentanoic acid] |  |  |  | > 50 µM |  |
| CC(C)(C)c1nc(-c2cccc(NS(=O)(=O)c3cc(C(F)(F)F)ccc3C(F)(F)F)c2F)c(-c2ccnc(NCCCCC(=O)O)n2)s1 [6-173, 5-((4-(4-(3-((2,5-bis(trifluoromethyl)phenyl)sulfonamido)-2-fluorophenyl)-2-(tert-butyl)thiazol-5-yl)pyrimidin-2-yl)amino)pentanoic acid] |  |  | 4.6 ± 0.86 nm/s | > 50 µM |  |
| CC(C)(C)c1nc(-c2cccc(NS(=O)(=O)c3c(F)cccc3F)c2F)c(-c2ccnc(N[C@H]3CC[C@H](C(=O)O)CC3)n2)s1 [6-89, (1r,4r)-4-((4-(2-(tert-butyl)-4-(3-((2,6-difluorophenyl)sulfonamido)-2-fluorophenyl)thiazol-5-yl)pyrimidin-2-yl)amino)cyclohexane-1-carboxylic acid] | 0.56 ± 0.18 | 22.4 ± 1.26 nm/s | 12.5 ± 4.36 nm/s | 0.166 ± 0.00409 µM | Papp A-B (P-gp; MDR1-MDCK): 22.37 ± 1.26 nm/s; Papp B-A (P-gp; MDR1-MDCK): 12.51 ± 4.36 nm/s; IC50 (A375 cells): 0.166 ± 0.00409 µM |

The next lines start with results.

| efflux ratio at 90 min, 10 µM (P-gp) | Papp A→B at 90 min, 10 µM (P-gp) | Papp B→A at 90 min, 10 µM (P-gp) | IC50 (A375 cells; Homo sapiens, A-375, 72 h) | Compound | further results |
| --- | --- | --- | --- | --- | --- |
| 1.3 ± 0.38 | 4.93 ± 1.48 nm/s | 6.26 ± 2.38 nm/s | > 1 µM | CC(C)(C)c1nc(-c2cccc(NS(=O)(=O)c3c(F)cccc3F)c2F)c(-c2ccnc(N[C@@H]3CC[C@H](C(=O)O)C3)n2)s1 [6-91, (1S,3R)-3-((4-(2-(tert-butyl)-4-(3-((2,6-difluorophenyl)sulfonamido)-2-fluorophenyl)thiazol-5-yl)pyrimidin-2-yl)amino)cyclopentane-1-carboxylic acid] |  |
| 0.61 ± 0.16 | 8.44 ± 2.14 nm/s | 4.45 ± 0.4 nm/s | 0.628 ± 0.105 µM | CC(C)(C)c1nc(-c2cccc(NS(=O)(=O)c3c(F)cccc3F)c2F)c(-c2ccnc(NCCCC(=O)O)n2)s1 [6-86, 4-((4-(2-(tert-butyl)-4-(3-((2,6-difluorophenyl)sulfonamido)-2-fluorophenyl)thiazol-5-yl)pyrimidin-2-yl)amino)butanoic acid] | ER (efflux ratio) (P-gp; MDR1-MDCK): 0.607 ± 0.16; IC50 (A375 cells): 0.628 ± 0.105 µM; Emax (A375 cells; Homo sapiens): 65% |
|  |  |  | 1.75 ± 0.0219 µM | CC(C)(C)c1nc(-c2cccc(NS(=O)(=O)c3c(F)cccc3F)c2F)c(-c2ccnc(CCCCCC(=O)O)n2)s1 [6-193, 6-(4-(2-(tert-butyl)-4-(3-((2,6-difluorophenyl)sulfonamido)-2-fluorophenyl)thiazol-5-yl)pyrimidin-2-yl)hexanoic acid] | Emax (A375 cells; Homo sapiens): 60% |
| 0.86 ± 0.19 | 8.68 ± 0.21 nm/s | 7.41 ± 1.56 nm/s | > 1 µM | CC(C)(C)c1nc(-c2cccc(NS(=O)(=O)c3c(F)cccc3F)c2F)c(-c2ccnc(CCC(=O)O)n2)s1 [6-97, 3-(4-(2-(tert-butyl)-4-(3-((2,6-difluorophenyl)sulfonamido)-2-fluorophenyl)thiazol-5-yl)pyrimidin-2-yl)propanoic acid] |  |
| 0.984 ± 0.164 | 15.8 ± 3.35 nm/s | 14.5 ± 0.77 nm/s | > 1 µM | CC(C)(C)c1nc(-c2cccc(NS(=O)(=O)c3c(F)cccc3F)c2F)c(-c2ccnc(Nc3ccc(C(=O)O)cc3)n2)s1 [6-77, 4-((4-(2-(tert-butyl)-4-(3-((2,6-difluorophenyl)sulfonamido)-2-fluorophenyl)thiazol-5-yl)pyrimidin-2-yl)amino)benzoic acid] |  |
| 1.93 ± 0.08 | 4.49 ± 0.08 nm/s | 10.3 ± 1.66 nm/s | 1.58 ± 0.458 µM | CC(C)(C)c1nc(-c2cccc(NS(=O)(=O)c3c(F)cccc3F)c2F)c(-c2ccnc(CCCCC(=O)O)n2)s1 [6-131, 5-(4-(2-(tert-butyl)-4-(3-((2,6-difluorophenyl)sulfonamido)-2-fluorophenyl)thiazol-5-yl)pyrimidin-2-yl)pentanoic acid] | Emax (A375 cells; Homo sapiens): 60% |
|  |  | 14.5 ± 1.72 nm/s | 0.558 ± 0.118 µM | CC(C)(C)c1nc(-c2cccc(NS(=O)(=O)c3c(F)cccc3F)c2F)c(-c2ccnc(CCCC(=O)O)n2)s1 [6-191, 4-(4-(2-(tert-butyl)-4-(3-((2,6-difluorophenyl)sulfonamido)-2-fluorophenyl)thiazol-5-yl)pyrimidin-2-yl)butanoic acid] | Emax (A375 cells; Homo sapiens): 60% |
